# Measured values published in patent US9682092B2, “Boron-containing small molecules as anti-inflammatory agents” (ANACOR PHARMACEUTICALS, INC., priority 2006, dated 2017).
# Key:
# PMA-induced ear swelling = assay: Topical, Phorbol Ester Mouse Ear Assay; assay type: in vivo, CD-1 (Crl.) derived male mice
# Protocol: 5-(4-Cyanophenoxy)-1-hydroxy-2,1-dihydrobenzoxaborole and betamethasone were provided by Anacor Pharmaceuticals, Inc. Betamethasone is used to treat the itching, redness, dryness, crusting, scaling, inflammation, and discomfort of various skin conditions.
# Test substances were each applied topically to the right ear of the test animal 30 minutes before and 15 minutes after Phorbol 12-Myristate 13-Acetate (PMA) was applied. The dosing volume was 20 μl/ear for solvent vehicle or 20 mg/ear for cream formulations.
# Male CD-1 (Crl.) derived mice weighing 24±2 g were provided by BioLasco Taiwan (under Charles River Laboratories Technology Licensee). Space allocation for 10 animals was 29×18×13 cm. Mice were housed in APEC® cages. All animals were maintained in a controlled temperature (22° C.-23° C.) and humidity (70%-80%) environment with 12 hours light dark cycles for at least one week in MDS Pharma Services—Taiwan Laboratory prior to use. Free access to standard lab chow for mice (Lab Diet, Rodent Diet, PMI Nutrition International, USA) and tap water was granted. All aspects of this work including housing, experimentation and disposal of animals were performed in general accordance with the Guide for the Care and Use of Laboratory Animals (National Academy Press, Washington, D.C., 1996).
# Groups of 5 CD-1 (Crl.) derived male mice weighing 24±2 g were used. PMA ([…] in 20 μl of Acetone) was applied topically to the anterior and posterior surfaces of the right ear to each animal. Vehicle (Ethanol:Acetone/1:1, 20 μL/ear or cream, 20 mg/ear) and test substances including 5-(4-cyanophenoxy)-1-hydroxy-2,1-dihydrobenzoxaborole and betamethasone were each applied 30 minutes before and 15 minutes after PMA application. […] Ear swelling was then measured by a Dyer model micrometer gauge at 6 hours after PMA application as an index of inflammation. Percent inhibition was calculated according to the formula: ([Ic−It]/Ic)×100%, where Ic and It refer to increase of ear thickness (mm) in control and treated mice, respectively. […]
SMILES,melting point [°C],further results
"N#Cc1ccc(Oc2ccc3c(c2)COB3O)cc1 [C17, 5-(4-Cyanophenoxy)-1,3-dihydro-1-hydroxy-2,1-benzoxaborole]",–,"Percent inhibition of ear swelling induced by topical phorbol ester (PMA-induced ear swelling; 0.2 mg/ear×2 topical, 30 min before and 15 min after PMA, ear swelling measured 6 hours after PMA): 22%; inhibition of the PMA-induced ear swelling (in words) (PMA-induced ear swelling; 1 mg/ear×2, versus vehicle or cream placebo control): significant inhibition"
"OB1OCc2ccc(Oc3ccc(OC(F)(F)F)cc3)cc21 [C29, 6-(4-trifluoromethoxyphenoxy)-1,3-dihydro-1-hydroxy-2,1-benzoxaborole]",97 to 101,–
"C[C@@H]1C[C@H]2[C@@H]3CCC4=CC(=O)C=C[C@]4(C)[C@@]3(F)[C@@H](O)C[C@]2(C)[C@@]1(O)C(=O)CO [dexamethasone, Dexamethasone, reference compound]",–,"decrease in the ear swelling relative to the vehicle (Ethanol:Acetone/1:1)-treated group (PMA-induced ear swelling; 3 mg/ear topical, positive control, 6 hours after PMA): 72%"
"Nc1cc2c(cc1F)COB2O [C70, 6-amino-5-fluorobenzo[c][1,2]oxaborol-1(3H)-ol]",142 to 145,–
"O=S(=O)(Nc1ccc2c(c1)B(O)OC2)c1ccccc1 [C62, N-(1-hydroxy-1,3-dihydrobenzo[c][1,2]oxaborol-6-yl)benzenesulfonamide]",175 to 184,–
"O=C(Nc1ccc2c(c1)B(O)OC2)c1ccccc1 [C52, N-(1-hydroxy-1,3-dihydrobenzo[c][1,2]oxaborol-6-yl)benzamide]",186 to 193,–
"[O-][S+](c1ccc(C(F)(F)F)cc1)c1ccc2c(c1)B(O)OC2 (centres unmarked) [C93, 6-(4-(trifluoromethyl)phenylsulfinyl)benzo[c][1,2]oxaborol-1(3H)-ol]",79 to 88,–
